# Data taken from ChEMBL document CHEMBL1201862, “PubChem BioAssay data set” (2004).
#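 All cell lines were grown in 96-well plates and treated with compound for 48 hours. GI50 marks 50% less growth.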 Active and inactive are the calls of the source. Cut-off read from the data, not from the text of the source: active = GI50 up to about 1.1 µM and inactive = higher.
# Assays:
# Test in all cases: NCI-60 cell line screen, 48 h
# HCT-15 = system: HCT-15
# Malme-3M = system: Malme-3M
# SF-268 = system: SF-268
# CCRF-CEM = system: CCRF-CEM
# KM-20L2 = system: KM-20L2
# OVCAR-4 = system: OVCAR-4
# SR = system: SR
# SNB-19 = system: SNB-19
# SF-295 = system: SF-295
# SNB-75 = system: SNB-75
# MDA-N = system: MDA-N
# LXFL 529 = system: LXFL 529
# SK-OV-3 = system: SK-OV-3
# DMS-114 = system: DMS-114
# M14 = system: M14
# IGROV-1 = system: IGROV-1
# DMS-273 = system: DMS-273
# HT-29 = system: HT-29
# HOP-18 = system: HOP-18
# HCC 2998 = system: HCC 2998
# HOP-92 = system: HOP-92
# SK-MEL-28 = system: SK-MEL-28
# NCI-H522 = system: NCI-H522
# M19-MEL = system: M19-MEL
# COLO 205 = system: COLO 205
# DLD-1 = system: DLD-1
# SNB-78 = system: SNB-78
# HOP-62 = system: HOP-62
# OVCAR-5 = system: OVCAR-5
# SN12C = system: SN12C
# K562 = system: K562
# XF498 = system: XF498
# HL-60 = system: HL-60
# MOLT-4 = system: MOLT-4
# HCT-116 = system: HCT-116
# 786-0 = system: 786-0
# A549 = system: A549
# NCI-H23 = system: NCI-H23
# SF-539 = system: SF-539
# SW-620 = system: SW-620
# CAKI-1 = system: CAKI-1
# SK-MEL-2 = system: SK-MEL-2
# U-251 = system: U-251
# UO-31 = system: UO-31
# UACC-257 = system: UACC-257
# SK-MEL-5 = system: SK-MEL-5
# OVCAR-8 = system: OVCAR-8
# NCI-H226 = system: NCI-H226
# EKVX = system: EKVX
# LOX IMVI = system: LOX IMVI
# A498 = system: A498
# RXF 631 = system: RXF 631
# NCI-H460 = system: NCI-H460
# UACC-62 = system: UACC-62
# RPMI-8226 = system: RPMI-8226
# OVCAR-3 = system: OVCAR-3
# TK-10 = system: TK-10
smiles,measurement,setting,value
O=c1[nH]c2ccccc2n1C1CCN(CCCC(c2ccc(F)cc2)c2ccc(F)cc2)CC1 [PIMOZIDE],GI50,HCT-15,3.1 µM
same,GI50,Malme-3M,2.05 µM (inactive)
same,GI50,SF-268,12.1 µM (inactive)
same,GI50,CCRF-CEM,5.51 µM (inactive)
same,GI50,KM-20L2,2.01 µM (inactive)
same,GI50,OVCAR-4,8.59 µM (inactive)
same,GI50,SR,2.5 µM (inactive)
same,GI50,SNB-19,14.5 µM (inactive)
same,GI50,SF-295,4.02 µM (inactive)
same,GI50,SNB-75,10.8 µM (inactive)
same,GI50,MDA-N,9.77 µM (inactive)
same,GI50,LXFL 529,3.73 µM (inactive)
same,GI50,SK-OV-3,12.8 µM (inactive)
same,GI50,DMS-114,2.22 µM (inactive)
same,GI50,M14,2.7 µM (inactive)
same,GI50,IGROV-1,13.9 µM (inactive)
same,GI50,DMS-273,3.45 µM (inactive)
same,GI50,HT-29,2.55 µM (inactive)
same,GI50,HOP-18,15.6 µM (inactive)
same,GI50,HCC 2998,1.9 µM (inactive)
same,GI50,HOP-92,3.9 µM (inactive)
same,GI50,SK-MEL-28,2.15 µM (inactive)
same,GI50,NCI-H522,2.81 µM (inactive)
same,GI50,M19-MEL,3.81 µM (inactive)
same,GI50,COLO 205,1.69 µM (inactive)
same,GI50,DLD-1,5.74 µM (inactive)
same,GI50,SNB-78,15.1 µM (inactive)
same,GI50,HOP-62,10.7 µM (inactive)
same,GI50,OVCAR-5,8 µM (inactive)
same,GI50,SN12C,12.2 µM (inactive)
same,GI50,K562,2.88 µM (inactive)
same,GI50,XF498,4.17 µM (inactive)
same,GI50,HL-60,2.37 µM (inactive)
same,GI50,MOLT-4,3.67 µM (inactive)
CCCCCCCCCC[C@@H](O)[C@@H]1CC[C@H]([C@H]2CC[C@@H]([C@@H](O)CCCCCCCCCC[C@H]3CC(CC(C)=O)C(=O)O3)O2)O1 (stereo partly specified),GI50,HCT-116,1.18 µM (inactive)
same,GI50,786-0,11.4 µM (inactive)
same,GI50,HCT-15,4.55 µM
same,GI50,Malme-3M,3.15 µM (inactive)
same,GI50,SF-268,1.62 µM (inactive)
same,GI50,CCRF-CEM,3.07 µM (inactive)
same,GI50,KM-20L2,14.6 µM (inactive)
same,GI50,A549,8.77 µM (inactive)
same,GI50,OVCAR-4,< 0.01 µM (active)
same,GI50,NCI-H23,< 0.01 µM (active)
same,GI50,SNB-19,10.4 µM (inactive)
same,GI50,SF-539,10.8 µM (inactive)
same,GI50,SW-620,13.5 µM (inactive)
same,GI50,CAKI-1,16.7 µM (inactive)
same,GI50,SK-MEL-2,14.4 µM (inactive)
same,GI50,U-251,15 µM (inactive)
same,GI50,UO-31,1.08 µM (active)
same,GI50,UACC-257,0.955 µM (active)
same,GI50,SNB-75,12 µM (inactive)
same,GI50,SK-MEL-5,< 0.01 µM (active)
same,GI50,LXFL 529,3.3 µM (inactive)
same,GI50,OVCAR-8,8.47 µM (inactive)
same,GI50,SK-OV-3,17.3 µM (inactive)
same,GI50,DMS-114,< 0.01 µM (active)
same,GI50,M14,11.8 µM (inactive)
same,GI50,NCI-H226,3.09 µM (inactive)
same,GI50,EKVX,7.16 µM (inactive)
same,GI50,IGROV-1,12.8 µM (inactive)
same,GI50,DMS-273,10.3 µM (inactive)
same,GI50,HT-29,15.8 µM (inactive)
same,GI50,HCC 2998,25.5 µM (inactive)
same,GI50,HOP-92,14.7 µM (inactive)
same,GI50,LOX IMVI,10.2 µM (inactive)
same,GI50,SK-MEL-28,9.35 µM (inactive)
same,GI50,NCI-H522,0.0324 µM (active)
same,GI50,M19-MEL,13.9 µM (inactive)
same,GI50,A498,16.2 µM (inactive)
same,GI50,COLO 205,13.4 µM (inactive)
same,GI50,RXF 631,8.91 µM (inactive)
same,GI50,DLD-1,16.6 µM (inactive)
same,GI50,NCI-H460,15.7 µM (inactive)
same,GI50,SNB-78,10.9 µM (inactive)
same,GI50,UACC-62,10.7 µM (inactive)
same,GI50,HOP-62,15.1 µM (inactive)
same,GI50,RPMI-8226,1.01 µM (active)
same,GI50,OVCAR-5,18 µM (inactive)
same,GI50,SN12C,10.3 µM (inactive)
same,GI50,OVCAR-3,0.171 µM (active)
same,GI50,K562,< 0.01 µM (active)
same,GI50,TK-10,12.6 µM (inactive)
same,GI50,HL-60,< 0.01 µM (active)
same,GI50,MOLT-4,1.67 µM (inactive)
